The record followed here is patent publication US9629942B2, “Limus-coated medical devices” (Innora GmbH, priority 2010, dated 2017).

A short description of series [1]: Stability of sirolimus on a balloon catheter. The series is classed as physicochemical. The note with it: at the dose level applied. Here is the method: Balloons for percutaneous transluminal coronary angioplasty (Cordis Fire Star catheters, Cordis Corp., USA) were coated either with sirolimus alone or combined with different amounts of BHT. Coated balloons were tested in respect of sirolimus loss during the passage through a hemostatic valve, Medtronic Launcher JL 3.5 6F guiding catheter, and one minute in stirred blood (37° C.).

Series [2] deals with neointimal proliferation. Briefly: Inhibition of neointimal proliferation. The series is classed as in vivo. Conditions: BHT without sirolimus, at the dose level applied.

Consider `Cc1cc(C(C)(C)C)c(O)c(C(C)(C)C)c1` [BHT, butylated hydroxytoluene], for which, in series [1], the “Effect of BHT on stability of sirolimus on a balloon catheter” value is recorded as “does not significantly increase the stability of sirolimus”. Also, in series [2], the “Inhibition of neointimal proliferation” value is recorded as “does not inhibit neointimal proliferation”.
